pIC50: −log10 of the molar value. Where two headings read alike, the source gives them in different places.
Key:
[1] = molecular target: T1, PRMT5/MEP50 (Homo sapiens, UniProt O14744); experiment: PRMT5/MEP50 enzyme assay on peptide substrates (3H-SAM Flashplate); format: biochemical; conditions: PRMT5/MEP50 10 nM, H4 1-15aa peptide 100 nM, 3H-SAM 1 μM
T1 construct: Full-length human PRMT5 (NP_006100)

[2] = system: Z-138 cells; experiment: Z-138 long term proliferation assay (Cell Titer Glo); format: cell-based; conditions: Homo sapiens; for GI50: 192 h, Z-138 cells, cell viability, day 8, read-out: PRMT5 Z138 GI50 Day 8 μM; for pIC50: Z-138, 192 h, summary of Table 1, read-out: IC50 value (all the three assays): Z138 GI50 Day 8
Method in brief: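 Z-138 cells exposed to ten-point 3-fold dilutions (top 10 μM, 0.3% DMSO) for 96 h at 37° C., 5% CO2, then re-dosed for four more days.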

[3] = system: Symmetric di-methyl arginine in Z-138 cells; experiment: Z-138 methylation assay, ELISA for detection of symmetric di-methyl arginine; format: cell-based; conditions: Homo sapiens
Method: General reagents. […] Iscove's Modified Dulbecco's Medium (IMDM), Horse serum, penicillin-streptomycin, PBS and TMB-ELISA substrate solution were purchased from ThermoFisher Scientific. Symmetric di-methyl arginine antibody was purchased from Cell Signaling Technologies.Anti-SNRPD3/SmD3 antibody was purchased from Sigma-Aldrich.
ELISA for detection of Symmetric di-methyl arginine. […] A compound source plate was prepared by performing ten-point 3-fold dilution in DMSO, such that the final top concentration of the compound was 10 μM, and DMSO was 0.3%. The total volume of compounds added was 20 μL. The cells were incubated for 96 h at 37° C., 5% CO2. Z-138 cells were directly lysed in media with 3× Lysis Buffer (1×: 10 mM HEPES pH7.9, 5 mM MgCl2, 1M NaCl, 0.25M Sucrose, 1% Triton X-100, 1 mM PMSF, Protease & Phosphatase inhibitors). […] Plates were incubated at room temperature for a minimum of 3 h and then washed with PBS-Tween 20 (0.05%). The plates were blocked with 5% BSA at room temperature for 1 h, washed with PBS-Tween 20 and incubated with primary antibody at 4 C overnight.

[4] = Z-138, 96 h, summary of Table 1, read-out: IC50 value (all the three assays): Z138 SDMA ELISA Day 4
[5] = Z-138 cells, 96 h (day 4), read-out: PRMT5 Z138 SDMA ELISA Day 4 μM

T1 sequence (O14744 whole entry): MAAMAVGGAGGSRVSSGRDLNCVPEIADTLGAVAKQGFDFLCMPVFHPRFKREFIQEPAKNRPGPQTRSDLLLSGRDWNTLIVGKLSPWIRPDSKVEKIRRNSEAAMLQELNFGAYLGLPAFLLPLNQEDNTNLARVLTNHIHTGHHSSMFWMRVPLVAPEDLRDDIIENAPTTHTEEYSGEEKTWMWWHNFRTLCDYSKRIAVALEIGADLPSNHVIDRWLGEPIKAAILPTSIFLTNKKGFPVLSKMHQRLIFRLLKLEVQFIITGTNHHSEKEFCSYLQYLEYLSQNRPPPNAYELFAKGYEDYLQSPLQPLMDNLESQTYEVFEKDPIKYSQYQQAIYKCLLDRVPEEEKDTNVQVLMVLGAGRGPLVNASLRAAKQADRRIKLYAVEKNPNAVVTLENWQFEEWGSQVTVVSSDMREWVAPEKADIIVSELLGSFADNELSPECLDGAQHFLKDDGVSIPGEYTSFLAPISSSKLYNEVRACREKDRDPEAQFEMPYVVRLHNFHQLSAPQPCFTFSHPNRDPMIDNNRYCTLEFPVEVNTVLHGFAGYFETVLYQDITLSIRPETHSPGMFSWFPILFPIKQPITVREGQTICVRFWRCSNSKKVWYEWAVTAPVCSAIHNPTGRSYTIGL
T1 sequence (Q9BQA1 whole entry partner): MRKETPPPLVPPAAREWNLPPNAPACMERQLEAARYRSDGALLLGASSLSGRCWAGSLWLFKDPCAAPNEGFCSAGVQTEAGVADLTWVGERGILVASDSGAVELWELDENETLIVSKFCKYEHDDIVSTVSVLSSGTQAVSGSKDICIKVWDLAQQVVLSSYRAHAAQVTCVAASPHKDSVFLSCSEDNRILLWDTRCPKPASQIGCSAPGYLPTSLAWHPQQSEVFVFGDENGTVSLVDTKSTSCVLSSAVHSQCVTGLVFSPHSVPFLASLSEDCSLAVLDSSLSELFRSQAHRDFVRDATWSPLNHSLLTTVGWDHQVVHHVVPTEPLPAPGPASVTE

`O=C(NC[C@H](O)CN1CCc2ccccc2C1)c1cn2cc(-c3cnn([C@@H]4CCOC4)c3)ccc2n1` [Example 20, N—((S)-3-(3,4-dihydroisoquinolin-2(1H)-yl)-2-hydroxypropyl)-6-(1-((R)-tetrahydrofuran-3-yl)-1H-pyrazol-4-yl)imidazo[1,2-a]pyridine-2-carboxamide] showed a pIC50 [1] of 6.00 to 8.00, a GI50 [2] of 10 to 1000 nM and a pIC50 [2] of 6.00 to 8.00. It also gave a pIC50 [3, 4] of 6.00 to 8.00 and a pIC50 [3, 5] of 6.00 to 8.00.
In the case of `CC(=O)N1CC(n2cc(-c3ccc4nc(C(=O)NC[C@H](O)CN5CCc6ccccc6C5)cn4c3)cn2)C1` [Example 23, (S)-6-(1-(1-acetylazetidin-3-yl)-1H-pyrazol-4-yl)-N-(3-(3,4-dihydroisoquinolin-2(1H)-yl)-2-hydroxypropyl)imidazo[1,2-a]pyridine-2-carboxamide], the pIC50 [1] was 6.00 to 8.00, the GI50 [2] was 10 to 1000 nM and the pIC50 [2] was 6.00 to 8.00. The pIC50 [3, 4] was 6.00 to 8.00 and the pIC50 [3, 5] was 6.00 to 8.00.
With `Cn1cc(-c2ccc3nc(C(=O)NC[C@H](O)CN4CCc5ccccc5C4)cn3c2)nn1` [Example 36, (S)—N-(3-(3,4-dihydroisoquinolin-2(1H)-yl)-2-hydroxypropyl)-6-(1-methyl-1H-1,2,3-triazol-4-yl)imidazo[1,2-a]pyridine-2-carboxamide] the pIC50 [1] was 6.00 to 8.00, the GI50 [2] was 10 to 1000 nM and the pIC50 [2] was 6.00 to 8.00. It also gave a pIC50 [3, 4] of 6.00 to 8.00 and a pIC50 [3, 5] of 6.00 to 8.00.
`CC(=O)Nc1ccc2nc(C(=O)NC[C@H](O)CN3CCc4ccccc4C3)cn2c1` [Example 39, (S)-6-acetamido-N-(3-(3,4-dihydroisoquinolin-2(1H)-yl)-2-hydroxypropyl)imidazo[1,2-a]pyridine-2-carboxamide] was tested, and the pIC50 [1] was 6.00 to 8.00, the GI50 [2] was 1000 to 5000 nM and the pIC50 [3, 5] was 6.00 to 8.00.
For `CS(=O)(=O)Nc1ccc2nc(C(=O)NC[C@H](O)CN3CCc4ccccc4C3)cn2c1` [Example 41, (S)—N-(3-(3,4-dihydroisoquinolin-2(1H)-yl)-2-hydroxypropyl)-6-(methylsulfonamido)imidazo[1,2-a]pyridine-2-carboxamide], the pIC50 [1] was < 5.30, the GI50 [2] was 10 to 1000 nM and the pIC50 [3, 5] was 6.00 to 8.00.
Molecule `O=C(NC[C@H](O)CN1CCc2ccccc2C1)c1cn2cc(C(F)(F)F)cnc2n1` [Example 42] has a pIC50 [1] of 6.00 to 8.00, a GI50 [2] of 1000 to 5000 nM and a pIC50 [3, 5] of 6.00 to 8.00.
With `Cn1cc(-c2cnc3nc(C(=O)NC[C@H](O)CN4CCc5ccccc5C4)cn3c2)cn1` [Example 43, (S)—N-(3-(3,4-dihydroisoquinolin-2(1H)-yl)-2-hydroxypropyl)-6-(1-methyl-1H-pyrazol-4-yl)imidazo[1,2-a]pyrimidine-2-carboxamide] the pIC50 [1] was < 5.30, the GI50 [2] was > 5000 nM and the pIC50 [3, 5] was 6.00 to 8.00.
With `Cn1cc(-c2cn3cc(C(=O)NC[C@H](O)CN4CCc5ccccc5C4)nc3cn2)cn1` [Example 45, (S)—N-(3-(3,4-dihydroisoquinolin-2(1H)-yl)-2-hydroxypropyl)-6-(1-methyl-1H-pyrazol-4-yl)imidazo[1,2-a]pyrazine-2-carboxamide] the pIC50 [1] was 6.00 to 8.00, the GI50 [2] was 10 to 1000 nM and the pIC50 [2] was 6.00 to 8.00. The pIC50 [3, 4] was 6.00 to 8.00 and the pIC50 [3, 5] was 6.00 to 8.00.
`Cn1ccc(-c2cn3cc(C(=O)NC[C@H](O)CN4CCc5ccccc5C4)nc3cn2)cc1=O` [Example 47, (S)—N-(3-(3,4-dihydroisoquinolin-2(1H)-yl)-2-hydroxypropyl)-6-(1-methyl-2-oxo-1,2-dihydropyridin-4-yl)imidazo[1,2-a]pyrazine-2-carboxamide] showed a pIC50 [1] of 6.00 to 8.00, a GI50 [2] of 10 to 1000 nM and a pIC50 [2] of 6.00 to 8.00. For the same molecule, the pIC50 [3, 4] was 6.00 to 8.00 and the pIC50 [3, 5] was 6.00 to 8.00.
In the case of `Cn1ccc(-c2ccc3nc(C(=O)NC[C@H](O)CN4CCc5ccccc5C4)cn3n2)cc1=O` [Example 48, (S)—N-(3-(3,4-dihydroisoquinolin-2(1H)-yl)-2-hydroxypropyl)-6-(1-methyl-2-oxo-1,2-dihydropyridin-4-yl)imidazo[1,2-b]pyridazine-2-carboxamide], the pIC50 [1] was 6.00 to 8.00, the GI50 [2] was 10 to 1000 nM and the pIC50 [2] was 6.00 to 8.00. For the same molecule, the pIC50 [3, 4] was 6.00 to 8.00 and the pIC50 [3, 5] was 6.00 to 8.00.
Molecule `O=C(NC[C@H](O)CN1CCc2ccccc2C1)c1cn2cc(N3CCC3)ccc2n1` [Example 69, (S)-6-(azetidin-1-yl)-N-(3-(3,4-dihydroisoquinolin-2(1H)-yl)-2-hydroxypropyl)imidazo[1,2-a]pyridine-2-carboxamide] has a pIC50 [1] of 6.00 to 8.00, a GI50 [2] of 1000 to 5000 nM and a pIC50 [3, 5] of 6.00 to 8.00.
Work on `O=C(NC[C@H](O)CN1CCc2ccccc2C1)c1cn2cc(N3CCC(F)C3)ncc2n1` (stereo partly drawn) [Example 73, N—((S)-3-(3,4-dihydroisoquinolin-2(1H)-yl)-2-hydroxypropyl)-6-(3-fluoropyrrolidin-1-yl)imidazo[1,2-a]pyrazine-2-carboxamide] yielded a pIC50 [1] of 5.30 to 6.00, a GI50 [2] of 1000 to 5000 nM and a pIC50 [3, 5] of 6.00 to 8.00.
Molecule `CN(C[C@H](O)CN1CCc2ccccc2C1)C(=O)c1cn2cc(-c3ccn(C)c(=O)c3)ncc2n1` [Example 93, (R)—N-(3-(3,4-dihydroisoquinolin-2(1H)-yl)-2-hydroxypropyl)-N-methyl-6-(1-methyl-2-oxo-1,2-dihydropyridin-4-yl)imidazo[1,2-a]pyrazine-2-carboxamide] has a pIC50 [1] of 6.00 to 8.00, a GI50 [2] of 1000 to 5000 nM and a pIC50 [3, 5] of 6.00 to 8.00.
For `O=C(NCC(O)CNC1Cc2ccccc2C1)c1cn2cc(C(F)(F)F)ccc2n1` (centres unmarked) [Example 96], the pIC50 [1] was 6.00 to 8.00, the GI50 [2] was 10 to 1000 nM and the pIC50 [2] was 6.00 to 8.00. The pIC50 [3, 4] was 6.00 to 8.00 and the pIC50 [3, 5] was 6.00 to 8.00.
For `O=C(NC(CO)CCN1CCc2ccccc2C1)c1cn2cc(C(F)(F)F)ccc2n1` (centres unmarked) [Example 100, N-(4-(3,4-dihydroisoquinolin-2(1H)-yl)-1-hydroxybutan-2-yl)-6-(trifluoromethyl)imidazo[1,2-a]pyridine-2-carboxamide], the pIC50 [1] was 5.30 to 6.00, the GI50 [2] was 1000 to 5000 nM and the pIC50 [3, 5] was 6.00 to 8.00.
`CC1CCc2nc(C(=O)NCC(O)CN3CCc4ccccc4C3)cn2C1` (centres unmarked) [Example 102, N-(3-(3,4-dihydroisoquinolin-2(1H)-yl)-2-hydroxypropyl)-6-methyl-5,6,7,8-tetrahydroimidazo[1,2-a]pyridine-2-carboxamide] was tested, and the pIC50 [1] was 5.30 to 6.00, the GI50 [2] was 10 to 1000 nM and the pIC50 [3, 5] was 6.00 to 8.00.
In the case of `CC1CCn2cc(C(=O)NCC(O)CN3CCc4ccccc4C3)nc2C1` (centres unmarked) [Example 103, N-(3-(3,4-dihydroisoquinolin-2(1H)-yl)-2-hydroxypropyl)-7-methyl-5,6,7,8-tetrahydroimidazo[1,2-a]pyridine-2-carboxamide], the pIC50 [1] was 5.30 to 6.00, the GI50 [2] was 10 to 1000 nM and the pIC50 [3, 5] was 6.00 to 8.00.
`CCCC1CCc2nc(C(=O)NCC(O)CN3CCc4ccccc4C3)cn2C1` (centres unmarked) [Example 106, N-(3-(3,4-dihydroisoquinolin-2(1H)-yl)-2-hydroxypropyl)-6-propyl-5,6,7,8-tetrahydroimidazo[1,2-a]pyridine-2-carboxamide] showed a pIC50 [1] of 6.00 to 8.00, a GI50 [2] of 1000 to 5000 nM and a pIC50 [3, 5] of 6.00 to 8.00.
`CO[C@@H]1CCc2nc(C(=O)NC[C@H](O)CN3CCc4ccccc4C3)cn2C1` [Example 107A, (R)—N—((S)-3-(3,4-dihydroisoquinolin-2(1H)-yl)-2-hydroxypropyl)-6-methoxy-5,6,7,8-tetrahydroimidazo[1,2-a]pyridine-2-carboxamide] was tested, and the pIC50 [1] was < 5.30, the GI50 [2] was 1000 to 5000 nM and the pIC50 [3, 5] was 6.00 to 8.00.
`CC(C)C1CCc2nc(C(=O)NC[C@H](O)CN3CCc4ccccc4C3)cn2C1` (stereo partly drawn) [Example 108, N—((S)-3-(3,4-dihydroisoquinolin-2(1H)-yl)-2-hydroxypropyl)-6-isopropyl-5,6,7,8-tetrahydroimidazo[1,2-a]pyridine-2-carboxamide] showed a pIC50 [1] of 5.30 to 6.00, a GI50 [2] of 10 to 1000 nM and a pIC50 [3, 5] of 6.00 to 8.00.
With `O=C(NCC(O)CN1CCc2ccccc2C1)c1cn2c(n1)CC(c1ccccc1)CC2` (centres unmarked) [Example 109, N-(3-(3,4-dihydroisoquinolin-2(1H)-yl)-2-hydroxypropyl)-7-phenyl-5,6,7,8-tetrahydroimidazo[1,2-a]pyridine-2-carboxamide] the pIC50 [1] was 5.30 to 6.00, the GI50 [2] was > 5000 nM and the pIC50 [3, 5] was 6.00 to 8.00.
Molecule `O=C(NCC(O)CN1CCc2ccccc2C1)c1cn2c(n1)CCC(c1ccccc1)C2` (centres unmarked) [Example 110, N-(3-(3,4-dihydroisoquinolin-2(1H)-yl)-2-hydroxypropyl)-6-phenyl-5,6,7,8-tetrahydroimidazo[1,2-a]pyridine-2-carboxamide] has a pIC50 [1] of 5.30 to 6.00, a GI50 [2] of 1000 to 5000 nM and a pIC50 [3, 5] of 6.00 to 8.00.
`Cn1cc(C2CCc3nc(C(=O)NCC(O)CN4CCc5ccccc5C4)cn3C2)cn1` (centres unmarked) [Example 111, N-(3-(3,4-dihydroisoquinolin-2(1H)-yl)-2-hydroxypropyl)-6-(1-methyl-1H-pyrazol-4-yl)-5,6,7,8-tetrahydroimidazo[1,2-a]pyridine-2-carboxamide] was tested, and the pIC50 [1] was 5.30 to 6.00, the GI50 [2] was 1000 to 5000 nM and the pIC50 [3, 5] was 6.00 to 8.00.
